{"source": "patent US20260014147A1", "about": "“STAT6 DEGRADERS” (Gilead Sciences, Inc., priority 2024, published 2026)", "key": {"[1]": {"test_system": "Eotaxin-3 (CCL26) release in human whole blood stimulated with IL-4", "assay": "Human Whole Blood Eotaxin-3 Assay (IL-4 stimulated, inhibition of eotaxin-3 release)", "format": "cell-based", "details": "Homo sapiens, EC50 provided for test compounds with >80% Emax, geometric mean across assay runs and batches", "method": "This was a human whole blood assay using recombinant human Interleukin 4 to stimulate the blood and measuring the ability of the test compounds to inhibit eotaxin-3 release. The biological activities of the test compounds have been tested in human whole blood stimulated with IL-4 measuring Eotaxin-3 release. The test compounds were added to 384 well clear flat-bottom plate in a 4-fold serial dilution in triplicates using a liquid handler. Human whole blood stabilized in lithium-heparin tubes was added in a volume of 65 uL per well, resulting in a final DMSO concentration of 0.5%. The plate is incubated for 2 h at 37° C. under 5% CO2/95% air. Subsequently, 5 μL of recombinant human IL-4 (R&D Systems, cat #204-ILB) was added to the wells to a final concentration of 400 pM. The plate was incubated for 48 h at 37° C. under 5% CO2/95% air. The plate was spun down for 10 minutes at 500×g and 20 uL supernatant was harvested and transferred to a 384 well v-bottom plate using a liquid handler and stored at −20° C. until further analysis. 10 uL supernatant was used to measure the level of Eotaxin-3 (CCL26) using Human Eotaxin-3 MSD kit from Mesocsale (Cat #K251UEK-4). The assay was performed according to the manufacture instructions.\nThe data from the human whole blood eotaxin-3 assay is shown below for Examples 2q11, 2110, and 2c49 (where the effect in % is plotted against the test concentration in M on a log-scale)."}, "[2]": {"molecular_target": "T1, STAT6 (endogenous, HiBiT-tagged) in HeLa LgBiT clone 4.14 cells (Homo sapiens, UniProt P42226)", "T1 construct": "These cells express endogenous STAT6; host or cells: HeLa LgBiT clone 4.14", "T1 sequence (P42226 1-847)": "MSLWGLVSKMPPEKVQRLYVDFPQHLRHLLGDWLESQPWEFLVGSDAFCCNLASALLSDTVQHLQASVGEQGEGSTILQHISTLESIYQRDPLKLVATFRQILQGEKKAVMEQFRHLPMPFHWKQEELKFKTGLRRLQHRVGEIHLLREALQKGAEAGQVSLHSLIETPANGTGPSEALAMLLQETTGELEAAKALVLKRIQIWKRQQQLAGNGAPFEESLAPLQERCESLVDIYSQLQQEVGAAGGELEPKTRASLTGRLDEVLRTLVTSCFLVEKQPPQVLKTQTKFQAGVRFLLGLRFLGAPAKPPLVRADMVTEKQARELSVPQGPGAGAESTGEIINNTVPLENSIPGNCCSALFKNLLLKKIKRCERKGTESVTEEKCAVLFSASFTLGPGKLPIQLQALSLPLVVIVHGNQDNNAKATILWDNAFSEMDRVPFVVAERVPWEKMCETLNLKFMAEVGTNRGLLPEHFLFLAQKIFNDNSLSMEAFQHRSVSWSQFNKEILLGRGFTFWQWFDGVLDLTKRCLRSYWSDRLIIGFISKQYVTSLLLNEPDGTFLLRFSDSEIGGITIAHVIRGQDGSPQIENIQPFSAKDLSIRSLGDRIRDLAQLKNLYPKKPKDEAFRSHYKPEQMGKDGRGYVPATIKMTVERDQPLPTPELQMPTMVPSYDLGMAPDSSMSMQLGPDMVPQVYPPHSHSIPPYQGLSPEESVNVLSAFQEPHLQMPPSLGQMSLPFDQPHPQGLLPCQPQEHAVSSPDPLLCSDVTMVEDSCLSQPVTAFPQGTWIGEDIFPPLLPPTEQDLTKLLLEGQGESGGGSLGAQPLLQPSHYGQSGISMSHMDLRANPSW", "assay": "STAT6 Degrader Assay (HiBiT based, HeLa LgBiT clone 4.14 cells, luminescence, DC50)", "format": "cell-based", "details": "geometric mean; for Emax: Emax provided for test compounds with <80% Emax (and 2c15), read-out: STAT6 degradation Emax; for DC50: DC50 provided for test compounds with >80% Emax, read-out: STAT6 degradation DC50", "method_in_brief": "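HeLa LgBiT clone 4.14 cells carry CRISPR-inserted HiBiT on endogenous STAT6; 5000 cells/well were exposed to compound for 4-24 h at 37 °C, 5% CO2. Nano-Glo substrate added for 0.5 h; luminescence reflects remaining STAT6, with terfenadine ([…]) wells defining 100% degradation.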"}}}
{"smiles": "C[C@@H](c1cc2c(-c3ccc4[nH]c(=O)n(C)c4c3)ccnc2n1C)N1CCC(c2ccc(C(=O)N3CCC(CN4CCN(c5ccc(NC6CCC(=O)NC6=O)cc5F)CC4)CC3)cc2)CC1", "note": "(stereo partly drawn) [Example 2c28, 3-((3-fluoro-4-(4-((1-(4-(1-((S)-1-(1-methyl-4-(3-methyl-2-oxo-2,3-dihydro-1H-benzo[d]imidazol-5-yl)-1H-pyrrolo[2,3-b]pyridin-2-yl)ethyl)piperidin-4-yl)benzoyl)piperidin-4-yl)methyl)piperazin-1-yl)phenyl)amino)piperidine-2,6-dione]", "values": [{"measurement": "EC50", "setting": "[1]", "result": 95.3, "unit": "nM"}, {"measurement": "Emax", "setting": "[2]", "result": "70 to 80", "unit": "%"}]}
{"smiles": "C[C@@H](c1cc2c(-c3ncc(N)cc3F)ccnc2n1C)N1CCC(c2ccc(C(=O)N3CCC(CN4CCN(c5ccc(NC6CCC(=O)NC6=O)cc5F)CC4)CC3)cc2)CC1", "note": "(stereo partly drawn) [Example 2c30, 3-((4-(4-((1-(4-(1-((S)-1-(4-(5-amino-3-fluoropyridin-2-yl)-1-methyl-1H-pyrrolo[2,3-b]pyridin-2-yl)ethyl)piperidin-4-yl)benzoyl)piperidin-4-yl)methyl)piperazin-1-yl)-3-fluorophenyl)-amino)piperidine-2,6-dione]", "values": [{"measurement": "EC50", "setting": "[1]", "result": 507, "unit": "nM"}, {"measurement": "Emax", "setting": "[2]", "result": "30 to 40", "unit": "%"}]}
{"smiles": "COc1nc(N)ccc1-c1ccnc2c1cc([C@H](C)N1CCC(c3ccc(C(=O)N4CCC(CN5CCN(c6ccc(NC7CCC(=O)NC7=O)cc6F)CC5)CC4)cc3)CC1)n2C", "note": "(stereo partly drawn) [Example 2c32, 3-((4-(4-((1-(4-(1-((S)-1-(4-(6-amino-2-methoxypyridin-3-yl)-1-methyl-1H-pyrrolo[2,3-b]pyridin-2-yl)ethyl)piperidin-4-yl)benzoyl)piperidin-4-yl)methyl)piperazin-1-yl)-3-fluorophenyl)amino)-piperidine-2,6-dione]", "values": [{"measurement": "EC50", "setting": "[1]", "result": 67.9, "unit": "nM"}, {"measurement": "DC50", "setting": "[2]", "result": 16.5, "unit": "nM"}]}
{"smiles": "C[C@@H](c1cc2c(-c3ccc(N)cn3)ccnc2n1C)N1CCC(c2ccc(C(=O)N3CCC(CN4CCN(c5ccc(NC6CCC(=O)NC6=O)cc5F)CC4)CC3)cc2)CC1", "note": "(stereo partly drawn) [Example 2c33, 3-((4-(4-((1-(4-(1-((S)-1-(4-(5-aminopyridin-2-yl)-1-methyl-1H-pyrrolo[2,3-b]pyridin-2-yl)ethyl)-piperidin-4-yl)benzoyl)piperidin-4-yl)methyl)piperazin-1-yl)-3-fluorophenyl)amino)piperidine-2,6-dione]", "values": [{"measurement": "EC50", "setting": "[1]", "result": 136, "unit": "nM"}, {"measurement": "DC50", "setting": "[2]", "result": 22.5, "unit": "nM"}]}
{"smiles": "CNc1ccc(-c2ccnc3c2cc([C@H](C)N2CC=C(c4c(C)cc(C(=O)N5CCC(CN6CCN(c7ncc(NC8CCC(=O)NC8=O)cc7F)C[C@@H]6C)CC5)cc4F)CC2)n3C)cn1", "note": "(stereo partly drawn) [Example 2c45, 3-((5-fluoro-6-((S)-4-((1-(3-fluoro-5-methyl-4-(1-((S)-1-(1-methyl-4-(6-(methyl-amino)pyridin-3-yl)-1H-pyrrolo[2,3-b]pyridin-2-yl)ethyl)-1,2,3,6-tetrahydropyridin-4-yl)benzoyl)-piperidin-4-yl)methyl)-3-methylpiperazin-1-yl)pyridin-3-yl)amino)piperidine-2,6-dione]", "values": [{"measurement": "EC50", "setting": "[1]", "result": 104, "unit": "nM"}, {"measurement": "DC50", "setting": "[2]", "result": 21.3, "unit": "nM"}]}
{"smiles": "CNc1ccc(-c2ccnc3c2cc([C@H](C)N2CC=C(c4c(C)cc(C(=O)N5CCC(CN6CCN(c7ccc(NC8CCC(=O)NC8=O)c(OC)c7)CC6)CC5)cc4F)CC2)n3C)cn1", "note": "(stereo partly drawn) [Example 2c46, 3-((4-(4-((1-(3-fluoro-5-methyl-4-(1-((S)-1-(1-methyl-4-(6-(methylamino)pyridin-3-yl)-1H-pyrrolo[2,3-b]pyridin-2-yl)ethyl)-1,2,3,6-tetrahydropyridin-4-yl)benzoyl)piperidin-4-yl)methyl)piperazin-1-yl)-2-methoxyphenyl)amino)piperidine-2,6-dione]", "values": [{"measurement": "EC50", "setting": "[1]", "result": 58.4, "unit": "nM"}, {"measurement": "DC50", "setting": "[2]", "result": 21.4, "unit": "nM"}]}
{"smiles": "COCc1nc2cc(-c3ccnc4c3cc([C@H](C)N3CCC(c5ccc(C(=O)N6CCC(CN7CCN(c8ccc(NC9CCC(=O)NC9=O)cc8F)C[C@H]7C)CC6)cc5)CC3)n4C)ccc2[nH]1", "note": "(stereo partly drawn) [Example 2f1, 3-((3-fluoro-4-((R)-4-((1-(4-(1-((S)-1-(4-(2-(methoxymethyl)-1H-benzo[d]imidazol-5-yl)-1-methyl-1H-pyrrolo[2,3-b]pyridin-2-yl)ethyl)piperidin-4-yl)benzoyl)piperidin-4-yl)methyl)-3-methylpiperazin-1-yl)phenyl)amino)piperidine-2,6-dione]", "values": [{"measurement": "EC50", "setting": "[1]", "result": 25, "unit": "nM"}, {"measurement": "DC50", "setting": "[2]", "result": 3.4, "unit": "nM"}]}
{"smiles": "C[C@@H]1CN(c2ccc(NC3CCC(=O)NC3=O)cc2F)CCN1CC1CCN(C(=O)c2ccc(C3CCN([C@@H](C)c4cc5c(-c6ccc(N)nc6)ccnc5n4C)CC3)cc2)CC1", "note": "(stereo partly drawn) [Example 2f2, 3-((4-((R)-4-((1-(4-(1-((S)-1-(4-(6-aminopyridin-3-yl)-1-methyl-1H-pyrrolo[2,3-b]pyridin-2-yl)ethyl)piperidin-4-yl)benzoyl)piperidin-4-yl)methyl)-3-methylpiperazin-1-yl)-3-fluorophenyl)amino)-piperidine-2,6-dione]", "values": [{"measurement": "EC50", "setting": "[1]", "result": 37, "unit": "nM"}, {"measurement": "DC50", "setting": "[2]", "result": 6.8, "unit": "nM"}]}
{"smiles": "C[C@@H](c1cc2c(-c3ccc(N)nc3)ccnc2n1C)N1CCC(c2ccc(C(=O)N3CCC(CN4CCC(c5ccc(NC6CCC(=O)NC6=O)cc5F)C(F)(F)C4)CC3)cc2)CC1", "note": "(stereo partly drawn) [Example 2m2, 3-((4-(1-((1-(4-(1-((S)-1-(4-(6-aminopyridin-3-yl)-1-methyl-1H-pyrrolo[2,3-b]pyridin-2-yl)-ethyl)piperidin-4-yl)benzoyl)piperidin-4-yl)methyl)-3,3-difluoropiperidin-4-yl)-3-fluorophenyl)amino)-piperidine-2,6-dione]", "values": [{"measurement": "EC50", "setting": "[1]", "result": 118, "unit": "nM"}, {"measurement": "Emax", "setting": "[2]", "result": "60 to 70", "unit": "%"}]}
{"smiles": "C[C@@H](c1cc2c(-c3ccc(N)nc3)ccnc2n1C)N1CCC(c2ccc(C(=O)N3CCC(CN4CCN(c5ccc(NC6CCC(=O)NC6=O)c(F)n5)CC4)CC3)cc2)CC1", "note": "(stereo partly drawn) [Example 2n9, 3-((6-(4-((1-(4-(1-((S)-1-(4-(6-aminopyridin-3-yl)-1-methyl-1H-pyrrolo[2,3-b]pyridin-2-yl)-ethyl)-piperidin-4-yl)benzoyl)piperidin-4-yl)methyl)piperazin-1-yl)-2-fluoropyridin-3-yl)amino)piperidine-2,6-dione]", "values": [{"measurement": "EC50", "setting": "[1]", "result": 141, "unit": "nM"}, {"measurement": "Emax", "setting": "[2]", "result": "70 to 80", "unit": "%"}]}
{"smiles": "C[C@@H](c1cc2c(-c3ccc(N)nc3)ccnc2n1C)N1CCC(c2ccc(C(=O)N3CCC(CN4CCN(c5ncc(NC6CCC(=O)NC6=O)cc5F)CC4)CC3)cc2)CC1", "note": "(stereo partly drawn) [Example 2n10, 3-((6-(4-((1-(4-(1-((S)-1-(4-(6-aminopyridin-3-yl)-1-methyl-1H-pyrrolo[2,3-b]pyridin-2-yl)ethyl)-piperidin-4-yl)benzoyl)piperidin-4-yl)methyl)piperazin-1-yl)-5-fluoropyridin-3-yl)amino)-piperidine-2,6-dione]", "values": [{"measurement": "EC50", "setting": "[1]", "result": 131, "unit": "nM"}, {"measurement": "Emax", "setting": "[2]", "result": "70 to 80", "unit": "%"}]}
{"smiles": "COCc1nc2cc(-c3ccnc4c3cc([C@H](C)N3CCC(c5ccc(C(=O)N6CCC(CN7CCN(c8ncc(NC9CCC(=O)NC9=O)cc8F)CC7)CC6)cc5)CC3)n4C)ccc2[nH]1", "note": "(stereo partly drawn) [Example 2n12, 3-((5-fluoro-6-(4-((1-(4-(1-((S)-1-(4-(2-(methoxymethyl)-1H-benzo[d]imidazol-5-yl)-1-methyl-1H-pyrrolo[2,3-b]pyridin-2-yl)ethyl)piperidin-4-yl)benzoyl)piperidin-4-yl)methyl)piperazin-1-yl)pyridin-3-yl)amino)piperidine-2,6-dione]", "values": [{"measurement": "EC50", "setting": "[1]", "result": 40.9, "unit": "nM"}, {"measurement": "Emax", "setting": "[2]", "result": "70 to 80", "unit": "%"}]}
